Laboratory results from patent US10696615B2, “Prenylated hydroxystilbenes” (The University of Sydney, priority 2011, dated 2020).

Key:
[1] = tested on: A498; assay: NCI in vitro cancer screen, Renal Cancer; assay type: cell-based, human; conditions: A498, unit not printed (M)
[2] = tested on: MOLT-4; assay: NCI in vitro cancer screen, Leukemia; assay type: cell-based, human; conditions: MOLT, unit not printed (M)
[3] = tested on: UO-31; assay: NCI in vitro cancer screen, Renal Cancer; assay type: cell-based, human; conditions: UO-31, unit not printed (M)
[4] = tested on: UACC-257; assay: NCI in vitro cancer screen, Melanoma; assay type: cell-based, human; conditions: UACC-257, unit not printed (M)
[5] = tested on: KM12; assay: NCI in vitro cancer screen, Colon Cancer; assay type: cell-based, human; conditions: KM12, unit not printed (M)
[6] = tested on: SN12C; assay: NCI in vitro cancer screen, Renal Cancer; assay type: cell-based, human; conditions: unit not printed (M)
[7] = tested on: MDA-MB-231 (MDA-MB-231/ATCC); assay: NCI in vitro cancer screen, Breast Cancer; assay type: cell-based, human; conditions: MDA-MB-231/ATCC, unit not printed (M)
[8] = tested on: LOX IMVI; assay: NCI in vitro cancer screen, Melanoma; assay type: cell-based, human; conditions: unit not printed (M)
[9] = tested on: SF-539; assay: NCI in vitro cancer screen, CNS Cancer; assay type: cell-based; conditions: SF-539, unit not printed (M)
[10] = tested on: HCT-15; assay: NCI in vitro cancer screen, Colon Cancer; assay type: cell-based, human; conditions: HCT-15, unit not printed (M)
[11] = tested on: PC-3; assay: NCI in vitro cancer screen, Prostate Cancer; assay type: cell-based, human; conditions: PC-3, unit not printed (M)
[12] = tested on: NCI-H522; assay: NCI in vitro cancer screen, Non-Small Cell Lung Cancer; assay type: cell-based, human; conditions: NCI-H522, unit not printed (M)
[13] = tested on: RXF-393; assay: NCI in vitro cancer screen, Renal Cancer; assay type: cell-based, human; conditions: Homo sapiens, RXF 393, unit not printed (M)
[14] = tested on: OVCAR-8; assay: NCI in vitro cancer screen, Ovarian Cancer; assay type: cell-based, human; conditions: OVCAR-8, unit not printed (M)
[15] = tested on: HT29; assay: NCI in vitro cancer screen, Colon Cancer; assay type: cell-based, human; conditions: HT29, unit not printed (M)
[16] = tested on: SNB-75; assay: NCI in vitro cancer screen, CNS Cancer; assay type: cell-based, human; conditions: SNB-75, unit not printed (M)
[17] = tested on: MCF7; assay: NCI in vitro cancer screen, Breast Cancer; assay type: cell-based, human; conditions: MCF7, unit not printed (M)
[18] = tested on: OVCAR-4; assay: NCI in vitro cancer screen, Ovarian Cancer; assay type: cell-based, human; conditions: OVCAR-4, unit not printed (M)
[19] = tested on: T-47D; assay: NCI in vitro cancer screen, Breast Cancer; assay type: cell-based, human; conditions: unit not printed (M)
[20] = tested on: SK-MEL-28; assay: NCI in vitro cancer screen, Melanoma; assay type: cell-based, human; conditions: SK-MEL-28, unit not printed (M)
[21] = tested on: M14; assay: NCI in vitro cancer screen, Melanoma; assay type: cell-based, human; conditions: M14, unit not printed (M)
[22] = tested on: A549/ATCC; assay: NCI in vitro cancer screen, Non-Small Cell Lung Cancer; assay type: cell-based, human; conditions: unit not printed (M)
[23] = tested on: HOP-92; assay: as above; assay type: cell-based, human; conditions: HOP (second HOP line), unit not printed (M)
[24] = tested on: SK-MEL-2; assay: NCI in vitro cancer screen, Melanoma; assay type: cell-based, human; conditions: SK-MEL-2, unit not printed (M)
[25] = tested on: SF-268; assay: NCI in vitro cancer screen, CNS Cancer; assay type: cell-based, human; conditions: SF-268, unit not printed (M)
[26] = tested on: OVCAR-5; assay: NCI in vitro cancer screen, Ovarian Cancer; assay type: cell-based, human; conditions: OVCAR-5, unit not printed (M)
[27] = tested on: EKVX; assay: NCI in vitro cancer screen, Non-Small Cell Lung Cancer; assay type: cell-based, human; conditions: unit not printed (M)
[28] = tested on: COLO 205; assay: NCI in vitro cancer screen, Colon Cancer; assay type: cell-based, human; conditions: COLO, unit not printed (M)
[29] = tested on: HL-60 (TB); assay: NCI in vitro cancer screen, Leukemia; assay type: cell-based, human; conditions: HL-60(TB), unit not printed (M)
[30] = tested on: NCI-H322M; assay: NCI in vitro cancer screen, Non-Small Cell Lung Cancer; assay type: cell-based, human; conditions: unit not printed (M)
[31] = tested on: RPMI-8226; assay: NCI in vitro cancer screen, Leukemia; assay type: cell-based, human; conditions: RPMI, unit not printed (M)
[32] = Homo sapiens, read-out: LC50 (the source's name)

Structure (SMILES): COc1cc(/C=C/c2cc(O)cc(O)c2CC=C(C)C)ccc1O [USYDS10, (E)-2-(3-methyl-2-buten-1-yl)-3,4′,5-trihydroxy-3′-methoxystilbene]
- TGI [1]: 7.85E−6
- GI50 ([1]; Homo sapiens): 2.17 µM
- CC50 [1, 32]: 34.8 µM
- GI50 ([2]; Homo sapiens, MOLT-4): 0.596 µM
- CC50 ([2]; Homo sapiens, MOLT-4, read-out: LC50 (the source's name)): > 100 µM
- TGI [2]: 1.99E−5
- GI50 ([3]; Homo sapiens): 0.878 µM
- CC50 [3, 32]: 95.2 µM
- TGI [3]: 2.17E−5
- GI50 ([4]; Homo sapiens): 11.7 µM
- CC50 [4, 32]: 73.7 µM
- TGI [4]: 2.94E−5
- GI50 ([5]; Homo sapiens): 0.497 µM
- CC50 [5, 32]: 85.8 µM
- TGI [5]: 1.53E−5
- GI50 ([6]; Homo sapiens): 0.671 µM
- CC50 [6, 32]: > 100 µM
- TGI [6]: 2.98E−5
- GI50 ([7]; Homo sapiens): 0.642 µM
- CC50 [7, 32]: > 100 µM
- TGI [7]: 3.20E−5
- GI50 ([8]; Homo sapiens): 0.572 µM
- CC50 [8, 32]: 80 µM
- TGI [8]: 1.93E−5
- GI50 ([9]; Homo sapiens): 0.376 µM
- CC50 [9, 32]: 41.7 µM
- TGI [9]: 1.29E−5
- TGI [10]: 2.09E−5
- GI50 ([10]; Homo sapiens): 0.498 µM
- CC50 [10, 32]: > 100 µM
- GI50 ([11]; Homo sapiens): 2.27 µM
- CC50 [11, 32]: > 100 µM
- TGI [11]: 3.12E−5
- GI50 ([12]; Homo sapiens): 0.349 µM
- CC50 [12, 32]: 42.2 µM
- TGI [12]: 1.46E−5
- GI50 [13]: 0.221 µM
- CC50 ([13]; read-out: LC50 (the source's name)): 37.6 µM
- GI50 ([14]; Homo sapiens): 0.467 µM
- CC50 [14, 32]: > 100 µM
- TGI [14]: 6.50E−5
- TGI [15]: 2.13E−5
- GI50 ([15]; Homo sapiens, HT-29): 5.72 µM
- CC50 ([15]; Homo sapiens, HT-29, read-out: LC50 (the source's name)): 69 µM
- GI50 ([16]; Homo sapiens): 0.236 µM
- CC50 [16, 32]: 36.1 µM
- TGI [16]: 1.22E−5
- GI50 ([17]; Homo sapiens): 0.332 µM
- CC50 [17, 32]: 50.6 µM
- TGI [17]: 1.30E−5
- GI50 ([18]; Homo sapiens): 1.03 µM
- CC50 [18, 32]: 57.7 µM
- TGI [18]: 1.82E−5
- GI50 ([19]; Homo sapiens, T47D): 1.47 µM
- CC50 ([19]; Homo sapiens, T47D, read-out: LC50 (the source's name)): > 100 µM
- TGI [19]: 2.47E−5
- GI50 ([20]; Homo sapiens): 0.572 µM
- LC50 ([20]; Homo sapiens): 43 µM
- TGI [20]: 1.69E−5
- GI50 ([21]; Homo sapiens): 0.284 µM
- CC50 [21, 32]: 41.6 µM
- TGI [21]: 1.42E−5
- GI50 ([22]; Homo sapiens): 0.66 µM
- CC50 [22, 32]: > 100 µM
- TGI [22]: 2.25E−5
- TGI [23]: 2.63E−5
- GI50 ([23]; Homo sapiens, HOP-92): 0.398 µM
- CC50 ([23]; Homo sapiens, HOP-92, read-out: LC50 (the source's name)): 93.2 µM
- GI50 ([24]; Homo sapiens): 0.576 µM
- LC50 ([24]; Homo sapiens): > 100 µM
- TGI [24]: 3.26E−5
- GI50 ([25]; Homo sapiens): 1.4 µM
- CC50 [25, 32]: > 100 µM
- TGI [25]: 4.96E−5
- GI50 ([26]; Homo sapiens): 8.92 µM
- CC50 [26, 32]: 83.1 µM
- TGI [26]: 2.80E−5
- GI50 ([27]; Homo sapiens): 12.2 µM
- CC50 [27, 32]: > 100 µM
- TGI [27]: 7.34E−5
- TGI [28]: 2.97E−5
- GI50 ([28]; Homo sapiens, COLO 205): 15.3 µM
- CC50 ([28]; Homo sapiens, COLO 205, read-out: LC50 (the source's name)): 57.7 µM
- TGI [29]: 1.88E−6
- GI50 ([29]; Homo sapiens): 0.327 µM
- CC50 [29, 32]: > 100 µM
- GI50 ([30]; Homo sapiens): 11.8 µM
- LC50 (50% lethal concentration) ([30]; Homo sapiens): 83.7 µM
- TGI [30]: 3.14E−5
- GI50 ([31]; Homo sapiens, RPMI-8226): 0.324 µM
- CC50 ([31]; Homo sapiens, RPMI-8226, read-out: LC50 (the source's name)): > 100 µM
- TGI [31]: 1.63E−5
